Changes are numbered by the printed parent chain. Entries after “also recorded” stand apart in the source; their conditions may differ. No end group written: not given here.
How the values were obtained:
[1] = test system: LPS-induced endotoxin shock in Balb/c mice
Protocol: Male 20- to 25-g Balb/c mice 8 to 10 weeks old were used. They were kept in our animal facility for at least one week prior to each experiment to allow adjustment and confirmation of their health. Each animal received rodent laboratory chow and water ad libitum. The CRH-R1 antagonist used was provided by the Pediatric and Reproductive Endocrinology Branch, NICHD, NIH, Bethesda, Md. Antalarmin was initially dissolved into 100% ethanol at a concentration of 200 mg/ml and then diluted in a 1:1 ratio with Cremaphor EL (Sigma), and finally brought to a working stock of 2 mg/ml antalarmin in 10% ethanol and 10% Cremaphor EL in sterile water. E coli lipopolysaccharide (serotype 0111:B4, cat. # L2630) and Salmonella enteritidis lipopolysaccharide (cat. # L6011) were purchased from Sigma. The antibodies and the reagents for the TNF-α, IL-1β and IL-6 determination were purchased from R&D (NE, USA).
For the determination of the LD50 groups composed of five mice were injected intraperitoneally (i.p) with either 200, 400, 600, 700 or 1000 μg/mouse of Salmonella-derived LPS (Sigma) dissolved in PBS at a concentration of 10 mg/ml. Survival of animals was monitored for a period of seven days. The same protocol was used for E. coli-derived LPS (O111:B4). To determine the effect of antalarmin in the survival of mice injected with LPS, 40 mice were divided in four different groups; the first group received antalarmin at a concentration of 20 mg/kg of body weight; the second received antalarmin at 20 mg/kg of body weight and LPS at a concentration of 0.7 mg per 25 g of body weight; the third group received LPS and the antalarmin diluent while the fourth group received the antalarmin diluent alone.

[2] = test system: LPS-induced endotoxin shock in Balb/c mice; experiment: Serum proinflammatory cytokines (ELISA) in LPS-induced endotoxin shock; type: in vivo; settings: for TNF-α level / IL-6 level / IL-1β level: antalarmin pre-treated vs LPS alone; for IL-6 level / IL-1β level: 4 hours after LPS; for IL-1β level: p=0.013
Protocol: (§1) Each time point and treatment group was composed of five animals per experiment. Sera were collected and frozen until used for cytokine determination by ELISA according to manufacturer (R&D, NE, USA). Similarly, cell culture supernatants were collected 24 hours following stimulation and stored at −70° C. until analyzed. Corticosterone was measured by RIA in serum collected 1 hour following LPS administration. Five animals per treatment were used. Sera were frozen at −70° C. and analyzed as recommended by the manufacturer (ICN, USA).

CRH-R1 receptor [3] = biological target: T1, CRH-R1 receptor (Rattus norvegicus, UniProt P35353); settings: PC12 rat pheochromocytoma cells; cited from earlier work
T1 construct: endogenous in cells; host or cells: PC12 rat pheochromocytoma cells
T1 sequence (P35353 24-415): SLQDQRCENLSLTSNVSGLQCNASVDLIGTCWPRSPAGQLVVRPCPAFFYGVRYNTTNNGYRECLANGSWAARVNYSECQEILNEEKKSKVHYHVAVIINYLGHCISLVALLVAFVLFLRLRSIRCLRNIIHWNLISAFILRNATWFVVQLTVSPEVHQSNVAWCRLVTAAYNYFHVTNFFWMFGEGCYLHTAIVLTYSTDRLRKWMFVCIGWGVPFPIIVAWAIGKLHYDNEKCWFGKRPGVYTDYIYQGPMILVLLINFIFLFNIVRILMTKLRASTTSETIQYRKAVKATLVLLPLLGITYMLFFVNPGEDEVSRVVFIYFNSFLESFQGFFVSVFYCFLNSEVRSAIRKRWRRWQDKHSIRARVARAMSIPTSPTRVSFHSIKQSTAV

CRH-R1 receptor [4] = biological target: T2, CRH-R1 receptor (Mus musculus, UniProt P35347); settings: cited from earlier work
T2 construct: monocyte/macrophage cells which express both the CRH-R1 and the CRH-R2 receptors on the surface; endogenous in cells; host or cells: macrophages in vitro (RAW 264.7 or Balb/c peritoneal macrophages, inferred)
T2 sequence (P35347 24-415): T1 sequence (P35353 24-415) with R6Q, N9S, T13A, V95I, H229Y

Balb/c mice = experiment: Determination of the LD50 of LPS i.p.; type: in vivo
CRH-R2 receptor = biological target: T3, CRH-R2 receptor (Mus musculus, UniProt Q60748); settings: cited from earlier work
T3 construct: monocyte/macrophage cells which express both the CRH-R1 and the CRH-R2 receptors on the surface; endogenous in cells; host or cells: macrophages

RAW264.7 cells [5] = experiment: LPS-induced cytokine secretion from RAW264.7 macrophages (ELISA); type: cell-based, mouse
Protocol: (§2) RAW 264.7 cells were cultured in Dulbecco's Modified Eagle Medium supplemented with 10% fetal calf serum (FCS), 10 mM L-glutamine, 100 U/ml penicillin, 0.1 mg/ml streptomycin (all purchased by Gibco), at 5% CO2 and 37° C. Cells were plated in 25 cm^2 flasks one day prior to stimulation. Cells were then stimulated with 10 μg/ml Ecoli-derived LPS (serotype 0111:B4, cat. # L2630, Sigma) and recombinant CRH (Sigma) at a concentration of 10^−8 M.
as §1, with “Serum from trunk blood was collected as follows: a) for the determination of TNF-α 1 hour after LPS administration and b) at 4 hours for the determination of IL-1β or IL-6 levels. Each” for “Each”

RAW264.7 cells [6] = experiment: Cytokine mRNA in RAW264.7 cells, semi-quantitative RT-PCR; type: cell-based, mouse
Protocol: as §2
(§3) Total cellular RNA was isolated using Trizol reagent (Gibco). Following reverse transcription (Thermoscript RT, Invitrogen), 1 μl of the cDNA product was amplified by PCR at 33 cycles. […] Intensity of the bands was quantified using TINAscan software.
(§4) Primers for actin were: sense, 5′-TCAGAAGAACTCCTATGTGG-3′; antisense, 5′-TCTCTTTGATGTCACGCACG-3′, giving a 499 bp product; for Tnf-α were: 5′-CACGCTCTTCTGTCTACTGAACTTCG-3′; 5′-GGCTGGGTAGAGAATGGATGAACACC-3′, giving a 590 bp product; for IL-1β were 5′-GGATGAGGACATGAGCACCT-3′ and 5′-TCCATTGAGGTGGAGAGCTT-3′, resulting in a 196 bp product; for IL-6,5′-TGAAGTTCCTCTCTGCAAGAGACT-3′,5′-TGA GGA AGG CCG TGG TTG T-3′, giving a 200 bp product. […] The quantitation was performed using the “TI-NAscan” software. […]

[7] = test system: thioglycollate-elicited peritoneal macrophages; experiment: Cytokine mRNA in thioglycollate-elicited peritoneal macrophages, RT-PCR; type: cell-based, Balb/c mice
Protocol: A 4% thioglycollate solution was prepared and autoclaved 2 days prior to administration. 1.5 ml of the thioglycollate solution was injected intraperitoneally in BALB/c mice and peritoneal macrophages were isolated by lavage of the peritoneal cavity with Dulbecco's Modified Medium. Cells were then cultured in DMEM supplemented with 10% FCS, 10 mM L-glutamine, 100 U/ml penicillin, 0.1 mg/ml streptomycin (Gibco). Cells were plated at a concentration of 5×10^5/ml and maintained in culture 24 hours prior to stimulation.
as §3, §4

[8] = CRH 1×10^−8 M plus LPS 10 μg/ml, 24 hours, vs LPS alone, p=0.04

T3 sequence (Q60748 whole entry): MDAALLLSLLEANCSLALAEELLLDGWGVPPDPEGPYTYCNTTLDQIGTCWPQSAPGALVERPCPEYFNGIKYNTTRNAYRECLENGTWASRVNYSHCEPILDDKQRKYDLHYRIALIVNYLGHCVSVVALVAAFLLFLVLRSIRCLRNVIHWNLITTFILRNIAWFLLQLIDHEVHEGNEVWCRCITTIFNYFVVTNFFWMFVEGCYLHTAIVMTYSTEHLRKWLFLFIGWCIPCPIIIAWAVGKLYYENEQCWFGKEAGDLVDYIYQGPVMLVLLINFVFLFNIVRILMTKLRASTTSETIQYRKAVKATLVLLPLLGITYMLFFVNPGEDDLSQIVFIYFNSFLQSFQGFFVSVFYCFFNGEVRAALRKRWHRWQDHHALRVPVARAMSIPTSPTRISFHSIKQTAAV

For `CCCCN(CC)c1nc(C)nc2c1c(C)c(C)n2-c1c(C)cc(C)cc1C` [antalarmin], the “mice still alive at 18 h” value ([1]; E coli-derived LPS 0.7 mg/25 g, antalarmin pre-treatment, all animals with LPS alone had died) was 72%, the overall survival ([1]; E coli-derived LPS, in the presence of antalarmin, p=0.002, observed 7 days) was “significantly improved” and the “animals that had died at 18 hours” value ([1]; Salmonella enteritidis-derived LPS 0.7 mg/25 g i.p., antalarmin 20 mg/kg IP 1.5 h prior to LPS, LPS alone 60%) was 20%. For the same compound, the TNF-α level ([2]; 1 h after LPS, p=0.001) was “significantly reduced”, the TNF-α level ([2]; 2 hours after LPS injection, p<0.001) was “significantly lower” and the IL-6 level ([2]; p<0.001) was “significantly lower”. The IL-6 level ([2]; p<0.001, listed as Antalarmin) was “significantly reduced”, the IL-1β level [2] was “significantly lower” and the IL-1β level ([2]; listed as Antalarmin) was “significantly reduced”. The “IL-6 level of LPS treated animals compared with LPS plus antalarmin treated mice” value ([2]; 6 hours after LPS, p<0.001, value describes LPS alone relative to LPS plus antalarmin) was “significantly higher”, the “IL-1β level of LPS treated animals compared with LPS plus antalarmin treated mice” value ([2]; 6 hours after LPS, p<0.01, value describes LPS alone relative to LPS plus antalarmin) was “significantly higher” and the “effect on CRH-mediated effects (p38, Fas ligand, apoptosis)” value (CRH-R1 receptor [3]) was “blocks all”. The “effect on the enhancing effect of CRH” value (CRH-R1 receptor [4]; macrophages in vitro, LPS) was “blocked completely”.

With Lipopolysaccharide [LPS] the animals survived (Balb/c mice; LPS 0.2 mg/25 g i.p.) was “One hundred”, the animals survived (Balb/c mice; LPS 0.4 mg/25 g i.p.) was 80% and the animals survived (Balb/c mice; LPS 0.6 mg/kg i.p. (so in the source)) was 40%. For the same compound, the animals survived (Balb/c mice; LPS 0.7 mg/25 g i.p.) was “none”, the animals survived (Balb/c mice; LPS 1 mg/25 g i.p.) was “none” and the LD100 (Balb/c mice; LPS i.p., mice) was ≥ 0.7 mg per 25 g of body weight. For the same compound, the LD50 (Balb/c mice; LPS i.p., mice, survival monitored seven days) was 0.5 mg per 25 g body weight.

In the case of “Urocortin II (IVLSLDVPIGLLQILLEQARARAAREQATTNARILARVGHC; ends and bridges not checked; UniProt Q96RP3 72-112, looked up) [CRH-related peptide that induces macrophage apoptosis via the CRH-R2 receptor]”, the apoptosis on macrophages (CRH-R2 receptor) is given as “induce apoptosis”.

In the case of corticotropin-releasing hormone [CRH], the “LPS-induced IL-1β secretion” value (RAW264.7 cells [5]; CRH 1×10^−8 M plus LPS 10 μg/ml, 24 hours, vs LPS alone, p=0.01) is reported as “potentiates; also recorded: significantly augmented”, the “LPS-induced IL-6 secretion” value (RAW264.7 cells [5]; [8]) is reported as “potentiates; also recorded: significantly augmented” and the “LPS-induced TNF-α secretion” value (RAW264.7 cells [5]; [8]) is reported as “significantly higher; also recorded: significantly augmented”. The “cytokine secretion, CRH alone” value (RAW264.7 cells [5]; CRH 1×10^−8 M without LPS) was “only a minimal effect”, the “LPS-induced cytokine transcription (IL-1β, TNF-α, IL-6 mRNA)” value (RAW264.7 cells [6]; CRH plus LPS, densitometry normalized versus actin) was “further potentiates; also recorded: strongly augmented” and the “transcription of IL-1β, TNF-α, or IL-6, CRH alone” value (RAW264.7 cells [6]; CRH without LPS) was “induces expression; also recorded: minimal transcription”. For the same compound, the “LPS-induced pro-inflammatory cytokine expression” value ([7]; CRH plus LPS) was “augments; also recorded: significantly augmented”, the “TNF-α, IL-1β or IL-6 transcription, CRH alone” value ([7]; CRH without LPS) was “unable to induce” and the Fas ligand production (CRH-R1 receptor [3]) was “stimulates”. For the same compound, the apoptosis (CRH-R1 receptor [3]) was “induces apoptosis”, the “p38 mitogen-activated protein kinase” value (CRH-R1 receptor [3]) was “activates” and the “inflammatory response to lipopolysaccharide (LPS) of macrophages” value (CRH-R1 receptor [4]; in vitro) was “enhances”.

In the case of sauvagine-30, the “effect on Urocortin / Urocortin II induced macrophage apoptosis” value (CRH-R2 receptor) is given as “completely abolishes”.
